# Reference: US3949075A, “Anti-microbial compounds of 2', 4' substituted anilides of substituted nitrosalicylic acid for quadruped animals” (Ferro Corporation, priority 1974, dated 1976)
# Read-outs that look alike come from different tables or passages of the source.
# What was measured:
# Haemonchus contortus = test: Percent of Haemonchus destroyed or expelled in infected sheep (egg count after treatment); type: in vivo, Haemonchus contortus (in sheep); settings: for inhibition in vivo at 15 mg/kg / inhibition in vivo at 5 mg/kg / inhibition in vivo at 2 mg/kg: Haemonchus contortus; for Effectiveness at 15 mg/kg against Haemonchus: Table VI
# Experimental: Two groups of sheep were used in the tests. One group was used as a non-medicated control, while the other group was treated with the compound under investigation. Helminth-free young lambs were infected with about 10,000 filariform larvae of Haemonchus contortus. In three weeks when the infection became apparent, egg counts were made to determine the density of the worm burden.
# The egg count was carried out using the following modified Stoll method. Three grams of sheep feces were taken rectally from each animal and placed in a Stoll flask. To each flask, tap water was added to the top line. The fecal pellets were too hard to break down, the flasks were closed with rubber stoppers and kept in the refrigerator for several hours. The flasks were thoroughly shaken and a 1 ml. sample was drawn from the middle using a wide mouth pipette. This 1 ml. sample was transferred to an 8 ml. plastic tube, to which enough saturated sodium chloride solution was added to reach the rim. The tubes were then centrifuged for 10 minutes at 1500 r.p.m. Then sodium chloride solution was added with a medicine dropper forming a concave miniscus. A cover glass was carefully added and the tubes were kept in a refrigerator for ten to twenty minutes. During that period, the nematode ova flowed upward and adhered to the bottom of the cover glass slip. At the end of the 20-minute period, the cover slip was carefully detached from the miniscus and transferred to a microscopic slide. The ova were then counted under a microscope equipped with 10X ocular and 10X objective lens. Each ovum under the microscope represented 20 ova in the sample.
# Animals with sufficiently high egg counts were taken out of the pool and housed in experimental pens. Since the salicylanilides of the present invention are water insoluble, the compounds were first ground using a mortar and pestle and then were placed in a carboxymethyl cellulose solution. The particles were further micronized ultrasonically. The compound was then administered to two or three animals by Oesophageal gavage. Control, untreated animals, received only the carboxymethyl cellulose solution in a similar manner. On the sixth and seventh day after treatment, fecal pellets were taken from the rectum of the control as well as the treated animals and egg counts were made.
# (§1) The results of tests on sheep in a manner described, supra, using compounds of the present invention are given in Table 1, Examples 5 through 13. The numbers in the column headed "Haemonchus (15 mg/kg)" refer to the percent of parasites destroyed or expelled when the indicated compound was introduced into the rumen of sheep at a dosage of 15 milligrams per kilogram of body weight. The values under "Tolerance (mg/kg)" refer to the highest test dosage in the milligrams of anthelmintic per kilogram of body weight at which the sheep developed no toxic symptoms. "Tol." is an abbreviation for "tolerated". The symbols R1 and R2 refer to those of Formula I in these and other following examples.
# (§2) The data of the tables were generated using procedures previously described. The compounds tested are disubstituted and, except for Example 50 which is dibromo, are dichloro. Where the position for the substituents is other than 2' and 4', it is indicated. Under the indicated microorganisms, the values given in this and the following tables, should be read as: percentage of microorganism killed/dose in milligrams per kilogram of body weight. Under "Tolerance", the term "Tol." means "tolerated", "Tox." means "toxic", and "Sym." means "symptoms of toxic reaction", all at the dosage value which follows. It will be appreciated that there is no sharp toxicity end point in determining toxicity to living sheep.
# Fasciola hepatica = test: Test for activity against liver flukes, Fasciola hepatica, in infected sheep; type: in vivo; settings: Fasciola hepatica, read-out: Fasciola hepatica, percentage of microorganism killed
# Experimental: Test for activity against liver flukes were conducted as follows:
# Eggs of Fasciola hepatica were collected from the bile of donor sheep. The eggs were embryonated and snails were infected (the genus Lymnaea serves as intermediate host) to produce Metacercariae which are the infective forms for sheep. Each sheep was infected with 250 metacercariae intraruminally. When the infection became patent in ca. 80 days, egg counts were carried out to determine the degree of worm burden. The liver was processed to recover F. hepatica in the untreated and treated sheep.
# as §2
# sheep = test: Tolerance / toxicity in sheep; type: in vivo; parameters: key to Tolerance at 100 mg/kg / Tolerance at 50 mg/kg: "toxic" refers to death of sheep resulting from the use of the indicated compound at the indicated dosage; key to Tolerance: Tol.: tolerated; Tox.: toxic; Sym.: symptoms of toxic reaction
# Experimental: as §1
# The importance of the 2',4' substitution on the anilide moiety of Formula I is illustrated by the case of the dichloro substitution as summarized in Table III. […] This has been mentioned briefly hereinabove. As used herein, "toxic" refers to death of sheep resulting from the use of the indicated compound at the indicated dosage.
# as §2
# [1] = sheep, intrarumenal, 15 mg/kg, Table II, read-out: Effectiveness in removal of Haemonchus
# [2] = sheep, 15 mg/kg, Tables VIII-XI, read-out: Haemonchus, percentage of microorganism killed
# [3] = sheep, 15 mg/kg, Table V, read-out: Effectiveness at 15 mg/kg against Haemonchus
# [4] = iv, sheep, 15 mg/kg, Tables III and IV, read-out: Effectiveness (%) at 15 mg/kg
# [5] = sheep, 5 mg/kg, Tables VIII-XI, read-out: Haemonchus, percentage of microorganism killed
# [6] = sheep, 15 mg/kg, Tables VIII-XI
# [7] = read-out: Effectiveness at 15 mg/kg against Haemonchus, sheep, 15 mg/kg, Table V
smiles,measurement,setting,value
Cc1ccc(NC(=O)c2c(C)c([N+](=O)[O-])cc(C(C)(C)C)c2O)c(C)c1 [Example 21],inhibition in vivo at 15 mg/kg,Haemonchus contortus; [1],13%
Cc1ccc(NC(=O)c2c(C)c([N+](=O)[O-])cc(C(C)(C)C)c2O)c(Cl)c1 [Example 71],inhibition in vivo at 15 mg/kg,Haemonchus contortus; [2],62%
Cc1c([N+](=O)[O-])cc(C(C)(C)C)c(O)c1C(=O)Nc1ccccc1Cl [Example 16],inhibition in vivo at 15 mg/kg,Haemonchus contortus; [3],33%
same,inhibition in vivo at 15 mg/kg,Haemonchus contortus; [2],33%
same,inhibition in vivo at 15 mg/kg,Haemonchus contortus; [1],33%
Cc1cccc(Cl)c1NC(=O)c1c(C)c([N+](=O)[O-])cc(C(C)(C)C)c1O [Example 30],inhibition in vivo at 15 mg/kg,Haemonchus contortus; [4],0%
same,inhibition in vivo at 15 mg/kg,Haemonchus contortus; [2],0%
same,"effectiveness against the parasites, in words",Haemonchus contortus; sheep,ineffective
Cc1c([N+](=O)[O-])cc(C(C)(C)C)c(O)c1C(=O)Nc1ccc(Cl)c(Cl)c1 [Example 25],inhibition in vivo at 15 mg/kg,Haemonchus contortus; [4],100%
same,inhibition in vivo at 5 mg/kg,Haemonchus contortus; [5],20%
same,inhibition in vivo at 15 mg/kg,Haemonchus contortus; [2],100%
same,Effectiveness (%) at 5 mg/kg,"Haemonchus contortus; sheep, 5 mg/kg, Tables III and IV",20%
same,inhibition in vivo at 2 mg/kg,"Fasciola hepatica; sheep, 2 mg/kg, Tables VIII-XI",0%
same,inhibition in vivo at 5 mg/kg,"Fasciola hepatica; sheep, Tables VIII-XI",95%
same,inhibition in vivo at 15 mg/kg,Fasciola hepatica; [6],100%
same,Tolerance,"sheep; 15 mg./kg., Tables VIII, X",Tox.
same,Tolerance,"sheep; 50 mg./kg., Tables VIII-X",Tox.
same,Tolerance at 50 mg/kg,"sheep; 50 mg/kg, Tables III and IV",toxic
Cc1c([N+](=O)[O-])cc(C(C)(C)C)c(O)c1C(=O)Nc1ccccc1F [Example 15],inhibition in vivo at 15 mg/kg,Haemonchus contortus; [1],0%
Cc1c([N+](=O)[O-])cc(C(C)(C)C)c(O)c1C(=O)Nc1ccccc1I [Example 18],inhibition in vivo at 15 mg/kg,Haemonchus contortus; [7],0%
same,inhibition in vivo at 15 mg/kg,Haemonchus contortus; [2],0%
same,inhibition in vivo at 15 mg/kg,Haemonchus contortus; [1],0%
Cc1c([N+](=O)[O-])cc(C(C)(C)C)c(O)c1C(=O)Nc1cccc(I)c1 [33 I 3'-substitution],inhibition in vivo at 15 mg/kg,Haemonchus contortus; [7],0%
same,inhibition in vivo at 15 mg/kg,Haemonchus contortus; [2],14%
Cc1cc(I)ccc1NC(=O)c1c(C)c([N+](=O)[O-])cc(C(C)(C)C)c1O [Example 66],inhibition in vivo at 2 mg/kg,"Haemonchus contortus; sheep, 2 mg/kg, Tables VIII-XI, read-out: Haemonchus, percentage of microorganism killed",13%
same,inhibition in vivo at 5 mg/kg,Haemonchus contortus; [5],88%
same,inhibition in vivo at 5 mg/kg,"Fasciola hepatica; sheep, Tables VIII-XI",100%
same,inhibition in vivo at 15 mg/kg,Fasciola hepatica; [6],100%
same,Tolerance,"sheep; 50 mg./kg., Tables VIII-X",Sym.
Cc1c([N+](=O)[O-])cc(C(C)(C)C)c(O)c1C(=O)Nc1cccc(Cl)c1 [31 Cl 3'-substitution],inhibition in vivo at 15 mg/kg,Haemonchus contortus; [3],0%
same,inhibition in vivo at 15 mg/kg,Haemonchus contortus; [2],0%
Cc1c([N+](=O)[O-])cc(C(C)(C)C)c(O)c1C(=O)Nc1ccc(S(N)(=O)=O)cc1 [Example 19],inhibition in vivo at 15 mg/kg,Haemonchus contortus; [1],0%
Cc1c([N+](=O)[O-])cc(C(C)(C)C)c(O)c1C(=O)Nc1ccc(Br)cc1Br [Example 50],inhibition in vivo at 5 mg/kg,Haemonchus contortus; [5],99.8%
same,inhibition in vivo at 5 mg/kg,"Fasciola hepatica; sheep, Tables VIII-XI",100%
Cc1ccc(Cl)cc1NC(=O)c1c(C)c([N+](=O)[O-])cc(C(C)(C)C)c1O [Example 29],inhibition in vivo at 15 mg/kg,Haemonchus contortus; [4],0%
same,inhibition in vivo at 15 mg/kg,Haemonchus contortus; [2],0%
same,"effectiveness against the parasites, in words",Haemonchus contortus; sheep,ineffective
Cc1c([N+](=O)[O-])cc(C(C)(C)C)c(O)c1C(=O)Nc1ccc(I)cc1 [Example 9],inhibition in vivo at 15 mg/kg,Haemonchus contortus; [7],93%
same,inhibition in vivo at 5 mg/kg,Haemonchus contortus; [5],22%
same,inhibition in vivo at 15 mg/kg,Haemonchus contortus; [2],93%
same,"Haemonchus (2 mg/kg), percent of parasites destroyed or expelled","Haemonchus contortus; sheep, into rumen, 2 mg/kg, Table 1",14%
same,"Haemonchus (5 mg/kg), percent of parasites destroyed or expelled","Haemonchus contortus; sheep, into rumen, 5 mg/kg, Table 1",22%
same,"Haemonchus (15 mg/kg), percent of parasites destroyed or expelled","Haemonchus contortus; sheep, into rumen, 15 mg/kg, Table 1",93%
same,inhibition in vivo at 15 mg/kg,Fasciola hepatica; [6],0%
Cc1c([N+](=O)[O-])cc(C(C)(C)C)c(O)c1C(=O)Nc1cc(Cl)cc(Cl)c1 [Example 26],inhibition in vivo at 15 mg/kg,Haemonchus contortus; [4],67%
same,inhibition in vivo at 15 mg/kg,Haemonchus contortus; [2],67%
same,"effectiveness against the parasites, in words",Haemonchus contortus; sheep,too low to be useful
same,inhibition in vivo at 15 mg/kg,Fasciola hepatica,100%
same,Tolerance,"sheep; 40 mg./kg., Table VIII",Tol.
COc1cc(Cl)ccc1NC(=O)c1c(C)c([N+](=O)[O-])cc(C(C)(C)C)c1O [Example 22],inhibition in vivo at 15 mg/kg,Haemonchus contortus; [1],10%
Cc1c([N+](=O)[O-])cc(C(C)(C)C)c(O)c1C(=O)Nc1c(Cl)cc(Cl)cc1Cl [Example 37],Effectiveness at 15 mg/kg against Haemonchus,"Haemonchus contortus; sheep, 15 mg/kg",73%
Cc1c([N+](=O)[O-])cc(C(C)(C)C)c(O)c1C(=O)Nc1cccc(C(F)(F)F)c1 [34 CF3 3'-substitution],inhibition in vivo at 15 mg/kg,Haemonchus contortus; [3],2%
same,inhibition in vivo at 15 mg/kg,Haemonchus contortus; [2],2%
CCOC(=O)c1ccc(NC(=O)c2c(C)c([N+](=O)[O-])cc(C(C)(C)C)c2O)cc1 [Example 20],inhibition in vivo at 15 mg/kg,Haemonchus contortus; [1],18%
Cc1c([N+](=O)[O-])cc(C(C)(C)C)c(O)c1C(=O)Nc1cc(Cl)c(Cl)cc1Cl [Example 36],Toxicity (printed in the column Effectiveness at 15 mg/kg against Haemonchus),"sheep; 15 mg/kg, Table VI",Toxic
Cc1cc(Br)ccc1NC(=O)c1c(C)c([N+](=O)[O-])cc(C(C)(C)C)c1O [Example 64],inhibition in vivo at 2 mg/kg,"Haemonchus contortus; read-out: Haemonchus, percentage of microorganism killed, sheep, 2 mg/kg, Tables VIII-XI",38%
same,inhibition in vivo at 5 mg/kg,Haemonchus contortus; [5],100%
same,inhibition in vivo at 5 mg/kg,"Fasciola hepatica; sheep, Tables VIII-XI",100%
same,Tolerance,"sheep; 50 mg./kg., Tables VIII-X",Tox.
same,Tolerance,"sheep; 50 mg./kg., Tables VIII-X, listed as 65",Sym.
Cc1cc(NC(=O)c2c(C)c([N+](=O)[O-])cc(C(C)(C)C)c2O)c(C)cc1Cl [Example 39],Effectiveness at 15 mg/kg against Haemonchus,"Haemonchus contortus; sheep, 15 mg/kg",0%
Cc1c([N+](=O)[O-])cc(C(C)(C)C)c(O)c1C(=O)Nc1ccccc1C(F)(F)F [Example 14],inhibition in vivo at 15 mg/kg,Haemonchus contortus; [3],0%
same,inhibition in vivo at 15 mg/kg,Haemonchus contortus; [2],0%
same,inhibition in vivo at 15 mg/kg,Haemonchus contortus; [1],0%
Cc1c([N+](=O)[O-])cc(C(C)(C)C)c(O)c1C(=O)Nc1cccc(Cl)c1Cl [Example 60],inhibition in vivo at 15 mg/kg,Haemonchus contortus; [2],14%
Cc1ccc(NC(=O)c2c(C)c([N+](=O)[O-])cc(C(C)(C)C)c2O)cc1Cl [Example 72],inhibition in vivo at 5 mg/kg,Haemonchus contortus; [5],0%
same,inhibition in vivo at 15 mg/kg,Haemonchus contortus; [2],80%
Cc1c([N+](=O)[O-])cc(C(C)(C)C)c(O)c1C(=O)Nc1ccccc1Br [Example 17],inhibition in vivo at 15 mg/kg,Haemonchus contortus; [3],0%
same,inhibition in vivo at 15 mg/kg,Haemonchus contortus; [2],0%
same,inhibition in vivo at 15 mg/kg,Haemonchus contortus; [1],0%
